# Assay results reported in patent publication US20260102407A1, “TREATMENT METHODS” (priority 2020, published 2026).
# Entries after “also recorded” stand apart in the source; their conditions may differ.
# What was measured:
# [1] = system: ERK phosphorylation; test: Western blot, IL-1β-inducible ERK phosphorylation in HMEC-1; format: cell-based, human; conditions: 20 ng/ml IL-1β 15 min
# Experimental: Western blot analysis with extracts of cells treated with […]. HMEC-1 (80-90% confluency) were arrested in serum-free MCDB131 medium (Invitrogen, MD) without any growth factor for 48 h. Cells were treated with 30 μM compound in serum-free medium for 4 h, and incubated with 20 ng/ml IL-1β (Sigma, cat. SRE3083) in serum-free medium with the same concentration of compound for up to 4 h, unless otherwise indicated. Total protein was harvested as previously described using RIPA buffer with protease inhibitors. Proteins were resolved on 4-20% (w/v) SDS-polyacrylamide gradient gels and transferred to Immobilon-P PVDF membranes. Membranes were blocked with 5% skim milk and incubated with rabbit monoclonal FosB (cat. 2251S, 1:1000, Cell Signaling, USA), rabbit monoclonal VCAM-1 (cat. 13662S, 1:1000, Cell Signaling, USA), rabbit monoclonal p44/42 MAPK (cat. 4695S, 1:1000, Cell Signaling, USA), rabbit polyclonal p38 MAPK (cat. 9212S, 1:1000, Cell Signaling, USA), rabbit polyclonal SAPK/JNK (cat. 9252S, 1:1000, Cell Signaling, USA), rabbit monoclonal phospho-SAPK/JNK (cat. 4671S, 1:1000, Cell Signaling, USA), rabbit monoclonal phospho-p38 MAPK (cat. 4511S, 1:1000, Cell Signaling, USA), or, mouse monoclonal phospho-p44/42 MAPK antibodies (cat. 9106S, 1:2000, Cell Signaling, USA) at 4° C. overnight or mouse monoclonal β-actin antibodies (cat. A5316, 1:10000, Sigma-Aldrich) antibodies at 22° C. for 1 h. Membranes were then incubated with horseradish peroxidase conjugated secondary goat anti-rabbit (cat. P0448, 1:1000, DAKO Cytomation, Denmark) or goat anti-mouse (cat. P0447, 1:1000, DAKO Cytomation, Denmark) antibodies for 1 h. Chemiluminescence was detected using the Western Lightning Chemiluminescence system and ImageQuant™ LAS 4000 biomolecular imager. Band intensity in images generated with the LAS 4000 using the same settings were quantified by NIH ImageJ.
# [2] = Limit of compound solubility by 1H 1D NMR; format: physicochemical; conditions: 1H 1D NMR spectroscopy
# Experimental: (§1) SPR. SPR was performed on a Biacore T200. The active and reference flow cells of a Xantec NIHMC Ni sensor chip were conditioned with 0.5M NaEDTA followed by 5 mM NiCl2 in immobilisation buffer (20 mM HEPES, 150 mM NaCl, pH 7.4). Recombinant human His-MEK1 and His-MEK2 (500 nM, ThermoFisher Scientific, cat. PV3303 and PV3615, respectively) were injected for 15 min at 10 μl min^−1 over separate active flow cells. All immobilisation was carried out at 25° C. Following immobilisation, the temperature was lowered to 15° C., and the buffer changed to 20 mM HEPES, 150 mM NaCl, 5% DMSO pH 7.4. Samples of PD98059 (2.5-30 μM in running buffer) and BT2 (1.25-15 μM) were injected at a flow rate of 30 μl min^−1 over immobilised MEK1 and MEK2. Solvent correction was applied to the data using a DMSO standard curve. Data were analysed using the Biacore T200 Evaluation software. Prior to SPR, limits of compound solubility were determined using ^1H 1D NMR.
# [3] = system: HMEC-1; test: Endothelial network formation assay on Matrigel; format: cell-based, human
# Experimental: Endothelial network formation assay. HMEC-1 (4×10^4 cells/well) in MCDB131 containing 1% FBS and compound (1 or 3 μM) or curcumin (1-40 μM) and 50 ng/ml FGF-2 were added to 96-well plates coated overnight at 4° C. with 100 μl of growth factor-reduced reconstituted basement membrane matrix (Matrigel, cat. 354230, Corning, NY). Network formation was observed over subsequent hours and photographed under 4× or 10× objective using an Olympus CKX41 microscope.
# [4] = target: T1, Recombinant human His-MEK1 (Homo sapiens, UniProt Q02750); test: SPR (Biacore T200) on immobilised His-MEK1; format: binding; conditions: 15° C.; 20 mM HEPES, 150 mM NaCl, 5% DMSO pH 7.4
# T1 construct: purchased ThermoFisher Scientific PV3303
# Experimental: as §1
# [5] = target: T2, Recombinant human His-MEK2 (Homo sapiens, UniProt P36507); test: SPR (Biacore T200) on immobilised His-MEK2; format: binding; conditions: 15° C.; 20 mM HEPES, 150 mM NaCl, 5% DMSO pH 7.4
# T2 construct: purchased ThermoFisher Scientific PV3615
# Experimental: as §1
# T1 sequence (Q02750 whole entry): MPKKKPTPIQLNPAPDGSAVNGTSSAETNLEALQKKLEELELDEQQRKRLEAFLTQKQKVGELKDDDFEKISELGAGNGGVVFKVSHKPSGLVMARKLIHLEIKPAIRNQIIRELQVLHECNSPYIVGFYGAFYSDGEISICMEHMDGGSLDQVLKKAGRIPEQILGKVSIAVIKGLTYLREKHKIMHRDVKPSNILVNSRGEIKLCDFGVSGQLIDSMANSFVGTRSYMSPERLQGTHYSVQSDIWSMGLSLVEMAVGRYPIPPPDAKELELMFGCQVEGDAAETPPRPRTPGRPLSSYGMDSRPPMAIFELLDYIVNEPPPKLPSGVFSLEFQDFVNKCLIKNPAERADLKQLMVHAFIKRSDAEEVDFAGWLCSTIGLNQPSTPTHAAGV
# T2 sequence (P36507 whole entry): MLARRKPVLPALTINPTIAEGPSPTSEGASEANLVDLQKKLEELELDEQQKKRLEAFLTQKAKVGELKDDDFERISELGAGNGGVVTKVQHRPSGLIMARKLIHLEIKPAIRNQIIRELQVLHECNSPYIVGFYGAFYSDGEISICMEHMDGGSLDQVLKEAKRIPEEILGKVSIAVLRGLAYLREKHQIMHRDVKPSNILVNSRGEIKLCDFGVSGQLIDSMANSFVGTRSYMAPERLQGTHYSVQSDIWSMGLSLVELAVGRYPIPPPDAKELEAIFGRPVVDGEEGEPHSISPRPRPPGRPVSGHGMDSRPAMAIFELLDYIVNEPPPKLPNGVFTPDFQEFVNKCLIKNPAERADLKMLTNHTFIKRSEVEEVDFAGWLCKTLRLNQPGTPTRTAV
smiles,measurement,setting,value
"CCN1C(=O)c2cc(NC(=O)OCC(C)C)ccc2Oc2ccccc21 [BT2-IC, isobutyl (10-ethyl-11-oxo-10,11-dihydrodibenzo[b,f][1,4]oxazepin-2-yl)carbamate]",IL-1β-inducible ERK phosphorylation (FIG. 5D),[1]; 1 μM,not at 1 μM
same,IL-1β-inducible ERK phosphorylation (FIG. 13A),[1]; 3 μM,inhibited both ERK phosphorylation (FIG. 13A) and network formation (FIG. 13B) at 3 μM (albeit less potently than BT2)
same,solubility,[2],8 ± 2 µM
same,inhibition of network formation on Matrigel (FIG. 5B),[3]; 1 μM,not at 1 μM
same,inhibition of network formation on Matrigel (FIG. 13B),[3]; 3 μM,some inhibition of network formation at higher concentrations; also recorded: inhibited both ERK phosphorylation (FIG. 13A) and network formation (FIG. 13B) at 3 μM (albeit less potently than BT2)
same,binding to His-MEK1 (SPR),[4],some interaction with MEK1
same,binding to His-MEK2 (SPR),[5],but not MEK2
